# Assay results reported in patent publication USRE45313E1, “Exendin variant peptides” (priority 1999, dated 2014).
# Entries after “also recorded” stand apart in the source; their conditions may differ.
# Experiments:
# ob/ob mice = assay: Blood glucose levels in ob/ob mice after peroral and intraperitoneal administration (Example 25); assay type: in vivo
# Excerpt: Forty female diabetic ob/ob mice (Umeä strain, Bomholtgaard), which are obese due to a dominant mutant leptin (Tomita, T., Doull, V., Pollock, H. G., and Krizsan, D. 1992. Pancreatic islets of obese hyperglycemic mice (ob/ob). Pancreas 7: 367-75) were housed (3 mice/cage) under controlled ambient conditions following a 12:12-h light: dark cycle and fed standard Altromin no 1324 diet with free access to tap water. At arrival the animals were 8 weeks of age. The mice were allowed 2 weeks of acclimatization before experiments were initiated. […] Handling of the mice one and three days before the experiment was performed in order to reduce stress-induced BG excursions. On the day of the experiment, blood was taken from the tip of the tail 2-3 hours after the light was turned on. A single drop of blood (<5 μl) was dropped on the glucose strip for analysis and measured by an Elite Autoanalyser, Bayer, Denmark. Whole blood glucose (BG) concentration was analysed by the immobilised glucose oxidase method. […] Six animals with BG <5.8 mM were excluded from the study (total n=36). The remaining animals were stratified based on their BG levels in order to ensure that the mean BG was similar among groups.
# Various concentrations of each peptide are administered orally and intraperitoneally to ob/ob mice to determine if these compounds affect blood glucose levels. The experimental conditions used were the same as described in Example 24.
# Solutions are prepared on the morning of dosing, immediately before the animals are administered. The same solutions are used for both peroral and interperitoneal administration. All peptides are dissolved in sterile isotonic NaCl and given in a volume of 0.2 ml. As negative control, saline is administered perorally.
# In order to analyse the effects of the compounds, the absolute and the relative (% of t=0) difference from baseline was calculated for each time point.
# diabetic ob/ob mice = assay: Single dose effect of oral and parenteral administration on blood glucose levels in diabetic ob/ob mice (Example 24); assay type: in vivo
# Excerpt: This was examined using Compound 5 to test the effect on blood glucose (BG) levels in the ob/ob mutant mice after intraperitoneal (i.p.) and peroral (p.o.) administration. […] Forty female diabetic ob/ob mice (Umeä strain, Bomholtgaard), which are obese due to a dominant mutant leptin (Tomita, T., Doull, V., Pollock, H. G., and Krizsan, D. 1992. Pancreatic islets of obese hyperglycemic mice (ob/ob). […] At arrival the animals were 8 weeks of age. The mice were allowed 2 weeks of acclimatization before experiments were initiated. At the time of experiment the mice were 13 weeks old with a body weight of 41.8±3.2 g (mean±SD; n=42). Handling of the mice one and three days before the experiment was performed in order to reduce stress-induced BG excursions. On the day of the experiment, blood was taken from the tip of the tail 2-3 hours after the light was turned on. A single drop of blood (<5 μl) was dropped on the glucose strip for analysis and measured by an Elite Autoanalyser, Bayer, Denmark. Whole blood glucose (BG) concentration was analysed by the immobilised glucose oxidase method. Blood glucose levels varied between normoglycaemia and severe hyperglycaemia (range: 3.6-15.6 mM; mean±SD: 9.4±3.3 mM: n=42). Six animals with BG <5.8 mM were excluded from the study (total n=36). The remaining animals were stratified based on their BG levels in order to ensure that the mean BG was similar among groups. […] Compound 5 (batch nr. ZP 3.12 fraction 1-2. […] The peptide was dissolved in sterile isotonic NaCl shortly before dosing and given in a volume of 0.2 ml. The same solutions were used for both p.o. and i.p. administration. For each animal, a data log sheet was filled out at the time of each blood sampling. […] During control conditions, BG levels in non-fasted ob/ob mice were similar in all groups (individual group data not shown), but within groups, there was a great scatter on BG levels (BG range for all animals: 5.8-15.6 mM). Therefore, to correct for the varying degree of hyperglycemia, results are expressed as the relative difference from baseline (% control). […] In most groups (5/6), BG increased between 4 and 8 hrs after drug administration. Compound 5 reduced the BG levels in a dose of 110 μg/mouse when administered i.p. in diabetic ob/ob mice (data not shown). The antidiabetic effect was observed after 60 minutes and was maximal 2-4 h after administration of the compound. […] Glucagon-like peptide-1 and the entero-insular axis in obese hyperglycaemic (ob/ob) mice.
Compound,"blood glucose relative to baseline (ob/ob mice; 1 μg po, 1 hour)","blood glucose relative to baseline (ob/ob mice; 1 μg po, 2 hours)","blood glucose relative to baseline (ob/ob mice; 1 μg po, 4 hours)","blood glucose relative to baseline (ob/ob mice; 10 μg po, 1 hour)","blood glucose relative to baseline (ob/ob mice; 10 μg po, 2 hours)","blood glucose relative to baseline (ob/ob mice; 10 μg po, 4 hours)","blood glucose relative to baseline (ob/ob mice; 100 μg ip, 1 hour)","blood glucose relative to baseline (ob/ob mice; 100 μg ip, 2 hours)","blood glucose relative to baseline (ob/ob mice; 100 μg ip, 4 hours)","blood glucose relative to baseline (ob/ob mice; 100 μg po, 1 hour)","blood glucose relative to baseline (ob/ob mice; 100 μg po, 2 hours)","blood glucose relative to baseline (ob/ob mice; 100 μg po, 4 hours)","blood glucose relative to baseline (ob/ob mice; 1000 μg po, 1 hour)","blood glucose relative to baseline (ob/ob mice; 1000 μg po, 2 hours)","blood glucose relative to baseline (ob/ob mice; 1000 μg po, 4 hours)",further results
CC[C@H](C)[C@H](NC(=O)[C@H](Cc1ccccc1)NC(=O)[C@H](CCC(=O)O)NC(=O)[C@H](CCCCN)NC(=O)[C@H](C)NC(=O)[C@H](C)NC(=O)[C@H](CCC(N)=O)NC(=O)CNC(=O)[C@H](CCC(=O)O)NC(=O)[C@H](CC(C)C)NC(=O)[C@H](Cc1ccc(O)cc1)NC(=O)[C@H](CO)NC(=O)[C@H](CO)NC(=O)[C@@H](NC(=O)[C@H](CC(=O)O)NC(=O)[C@H](CO)NC(=O)[C@@H](NC(=O)[C@H](Cc1ccccc1)NC(=O)[C@@H](NC(=O)CNC(=O)[C@H](CCC(=O)O)NC(=O)CNC(=O)[C@@H](N)Cc1c[nH]cn1)[C@@H](C)O)[C@@H](C)O)C(C)C)C(=O)N[C@@H](C)C(=O)N[C@@H](Cc1c[nH]c2ccccc12)C(=O)N[C@@H](CC(C)C)C(=O)N[C@H](C(=O)N[C@@H](CCCCN)C(=O)NCC(=O)N[C@@H](CCCNC(=N)N)C(=O)N[C@@H](CCCCN)C(=O)N[C@@H](CCCCN)C(=O)N[C@@H](CCCCN)C(=O)N[C@@H](CCCCN)C(=O)N[C@@H](CCCCN)C(=O)N[C@@H](CCCCN)C(N)=O)C(C)C [Compound 4],99 % of t=0,89 % of t=0,84 % of t=0,98 % of t=0,95 % of t=0,81 % of t=0,83 % of t=0,58 % of t=0,56 % of t=0,72 % of t=0,70 % of t=0,58 % of t=0,128 % of t=0,72 % of t=0,78 % of t=0,
CCCCCCCCCCCCCCCC(=O)NCCCC[C@H](NC(=O)[C@H](CCCNC(=N)N)NC(=O)CNC(=O)[C@H](CCCCN)NC(=O)[C@@H](NC(=O)[C@H](CC(C)C)NC(=O)[C@H](Cc1c[nH]c2ccccc12)NC(=O)[C@H](C)NC(=O)[C@@H](NC(=O)[C@H](Cc1ccccc1)NC(=O)[C@H](CCC(=O)O)NC(=O)[C@H](CCCCN)NC(=O)[C@H](C)NC(=O)[C@H](C)NC(=O)[C@H](CCC(N)=O)NC(=O)CNC(=O)[C@H](CCC(=O)O)NC(=O)[C@H](CC(C)C)NC(=O)[C@H](Cc1ccc(O)cc1)NC(=O)[C@H](CO)NC(=O)[C@H](CO)NC(=O)[C@@H](NC(=O)[C@H](CC(=O)O)NC(=O)[C@H](CO)NC(=O)[C@@H](NC(=O)[C@H](Cc1ccccc1)NC(=O)[C@@H](NC(=O)CNC(=O)[C@H](CCC(=O)O)NC(=O)CNC(=O)[C@@H](N)Cc1c[nH]cn1)[C@@H](C)O)[C@@H](C)O)C(C)C)[C@@H](C)CC)C(C)C)C(=O)N[C@@H](CCCCN)C(=O)N[C@@H](CCCCN)C(=O)N[C@@H](CCCCN)C(=O)N[C@@H](CCCCN)C(=O)N[C@@H](CCCCN)C(=O)N[C@@H](CCCCN)C(N)=O [Compound 5],111 % of t=0,133 % of t=0,114 % of t=0,90 % of t=0,120 % of t=0,126 % of t=0,63 % of t=0,50 % of t=0,52 % of t=0,97 % of t=0,140 % of t=0,107 % of t=0,73 % of t=0,75 % of t=0,67 % of t=0,"time of BG nadir after administration (diabetic ob/ob mice; 110 μg i.p.): 1 to 2 h; duration of effect (long-lasting effect) (diabetic ob/ob mice; 110 μg/mouse i.p.): > 8 h; effect on blood glucose (BG) levels (diabetic ob/ob mice; 110 μg/mouse i.p.): reduced BG levels; also recorded: sustained decrease in BG; also recorded: effectively lowers BG levels; time at which antidiabetic effect was observed (diabetic ob/ob mice; 110 μg/mouse i.p.): 60 min; time of maximal antidiabetic effect after administration (diabetic ob/ob mice; 110 μg/mouse i.p.): 2 to 4 h; effect on blood glucose (BG) levels (diabetic ob/ob mice; p.o., doses lower than 1100 μg/mouse): not at lower doses"
